We go through three compounds from patent publication US6506744B1, “Benzazepinone-derivatives” (Hoffmann-La Roche Inc., priority 1999, dated 2003).

As a reminder, the melting point is the temperature, or range, at which the solid turns liquid. As to `CN1C(=O)CN(CC(=O)NCCC(=O)O)C(=O)c2cc(NC(=O)NCc3ccccc3)ccc21` [Example 3, 3-[2-[7-(3-benzyl-ureido)-1-methyl-2,5-dioxo-1,2,3,5-tetrahydro-benzo[e][1,4]diazepin-4-yl]-acetylamino]-propionic acid], the melting point was 116 °C (dec.).

`O=C(O)C[C@@H](NC(=O)CN1C[C@H](c2ccccc2)Oc2ccc(NC(=O)NCc3ccccc3)cc2C1=O)c1ccccc1` [Example 21, (R,S)-3-{2-[7-(3-benzyl-ureido)-5-oxo-2-phenyl-2,3-dihydro-5H-benzo[f][1,4]oxazepin-4-yl]-acetylamino}-3-phenyl-propionic acid] had a melting point of 138 to 140 °C.

The compound `CN1C(=O)CN(CC(=O)NCCC(=O)O)C(=O)c2cc(NC(=N)N)ccc21.Cl` had a melting point of 126 °C.
